# Measurements: PMC11270681, “Synthesis and Systematic Investigation of Lepidiline A and Its Gold(I), Silver(I), and Copper(I) Complexes Using In Vitro Cancer Models and Multipotent Stem Cells” (ACS Omega, 2024)
# “And” between values parts separate entries of the source, which are not always exact repeats. Equal values may be shown once.
# What was measured:
# [1] = system: Mes-Sa B1; assay: Cytotoxicity, MDR1-transfected uterine sarcoma line; type: cell-based; conditions: Mes-Sa B1 (MDR1 transfected, ABCB1 expressing), fluorescent protein intensity after 144 h
# Procedure: (§1) OVCAR-3 (OVC-3) and OVCAR-8 (OVC-8) ovarian serous adenocarcinomas, IGROV-1 ovarian endometrioid adenocarcinoma, OVCAR-5 (OVC-5) upper gastrointestinal carcinoma, MDA-MB-231 breast adenocarcinoma, and MCF-7 and T-47D invasive breast carcinomas were purchased from the Developmental Therapeutic Program of the National Cancer Institute (NIH, USA) and were cultured in an RPMI medium (Thermo Fisher). Mes-Sa and Mes-Sa/Dx5 uterine sarcoma cell lines were purchased from American Type Culture Collection (ATCC) and were kept in DMEM (Thermo Fisher). Mes-Sa B1 was transfected with the human MDR1 gene, and Mes-Sa mCherry, Mes-Sa B1 mOrange, and Mes-Sa/Dx5 eGFP were engineered to stably express the respective fluorescent proteins previously.[51] Culture media for cancer cells were supplemented with 10% fetal bovine serum, 2 mM L-glutamine, and 100 units/mL penicillin and 100 μg/mL streptomycin (Thermo Fisher). The adipose tissue and bone marrow-derived mesenchymal stem cells (AD-MSC and BM-MSC) were described previously[37] and were kept in DMEM-F12 (Gibco) supplemented with 10% fetal bovine serum, L-glutamine (Thermo Fisher), 0.1% gentamicin (Gibco, 50 mg/mL), and 16 ng/mL fibroblast growth factor 2 (Peprotech). Cells were kept at 37 °C under 5% CO2 and were negative for mycoplasma infection.
# (§2) Cytotoxicities of the nonfluorescent cancer cells were assessed with a PrestoBlue cell viability reagent (Thermo Fisher). Briefly, 2500 cells/well were seeded on 384-well plates; then, the next-day drugs were added. After 72 h of incubation, PrestoBlue was added in a 10% final concentration, and after an hour of additional incubation, plates were measured with a PerkinElmer EnSpire plate reader at 555 nm/585 nm excitation/emission wavelengths. Stem cells were seeded on 96-well plates at a density of 5000 cells/well, and the following day, drugs were added for 96 h of incubation; then, viability was assessed with 10% PrestoBlue diluted in PBS. Fluorescent cancer cells were admixed before seeding on 384-well plates at an 800 cells/well density each, thus altogether 2400 cells/well. Drugs were added the following day, and the intensity of the fluorescent proteins was measured after 144 h of incubation at the respective fluorescent channels (excitation/emission, eGFP: 485 nm/510 nm; mCherry: 585 nm/610 nm; mOrange: 545 nm/567 nm). pIC50 values were calculated by a custom program written by Judit Sessler in C#. IC50 values and standard deviation were calculated from average pIC50 values from at least 3 independent measurements.
# [2] = system: Mes-Sa/Dx5; assay: Cytotoxicity, doxorubicin-selected MDR uterine sarcoma line; type: cell-based; conditions: Mes-Sa/Dx5 (doxorubicin selected, ABCB1 expressing), fluorescent protein intensity after 144 h
# Procedure: as §1, §2
# [3] = system: Mes-Sa; assay: Cytotoxicity, uterine sarcoma parental line; type: cell-based; conditions: fluorescent protein intensity after 144 h
# Procedure: as §1, §2
# [4] = system: OVC-5; assay: Cytotoxicity (PrestoBlue), upper gastrointestinal cancer line; type: cell-based; conditions: OVC-5, 72 h incubation, PrestoBlue
# Procedure: as §1, §2
# [5] = system: OVC-8; assay: Cytotoxicity (PrestoBlue), ovarian cancer line; type: cell-based; conditions: OVC-8, 72 h incubation
# Procedure: as §1, §2
# [6] = system: OVC-3; assay: Cytotoxicity (PrestoBlue), ovarian cancer line; type: cell-based; conditions: OVC-3, 72 h incubation
# Procedure: as §1, §2
# [7] = system: IGROV-1; assay: Cytotoxicity (PrestoBlue), ovarian cancer line; type: cell-based; conditions: IGROV-1, 72 h incubation
# Procedure: as §1, §2
# [8] = system: BM-MSC; assay: Cytotoxicity (PrestoBlue), bone marrow-derived mesenchymal stem cells; type: cell-based; conditions: 96 h incubation
# Procedure: as §1, §2
# [9] = system: cancer lines; assay: Cytotoxicity, range over cancer lines; type: cell-based; conditions: all cancer lines tested; read-out: IC50 range over cancer lines
# Procedure: as §1
# (§3) Cytotoxicities of the nonfluorescent cancer cells were assessed with a PrestoBlue cell viability reagent (Thermo Fisher). Briefly, 2500 cells/well were seeded on 384-well plates; then, the next-day drugs were added. After 72 h of incubation, PrestoBlue was added in a 10% final concentration, and after an hour of additional incubation, plates were measured with a PerkinElmer EnSpire plate reader at 555 nm/585 nm excitation/emission wavelengths. Stem cells were seeded on 96-well plates at a density of 5000 cells/well, and the following day, drugs were added for 96 h of incubation; then, viability was assessed with 10% PrestoBlue diluted in PBS. […] IC50 values and standard deviation were calculated from average pIC50 values from at least 3 independent measurements.
# [10] = system: im. BM-MSC; assay: Cytotoxicity (PrestoBlue), immortalized bone marrow MSC; type: cell-based; conditions: 96 h incubation
# Procedure: as §1, §2
# [11] = system: 3 ovarium cancer lines (IGROV-1, OVC-3, and OVC-8); assay: Cytotoxicity, range over 3 ovarium cancer lines; type: cell-based; conditions: IGROV-1, OVC-3, OVC-8
# Procedure: as §1, §2
# [12] = system: MSCs; assay: Cytotoxicity, range over MSCs; type: cell-based; conditions: AD-MSC, BM-MSC, immortalized BM-MSC
# Procedure: as §1, §3
# [13] = system: AD-MSC; assay: Cytotoxicity (PrestoBlue), adipose-derived mesenchymal stem cells; type: cell-based; conditions: 96 h incubation
# Procedure: as §1, §2
# [14] = system: T-47D; assay: Cytotoxicity (PrestoBlue), breast cancer line; type: cell-based; conditions: 72 h incubation
# Procedure: as §1, §2
# [15] = system: MCF-7; assay: Cytotoxicity (PrestoBlue), breast cancer line; type: cell-based; conditions: MCF-7, 72 h incubation
# Procedure: as §1, §2
# [16] = system: MDA-MB-231; assay: Cytotoxicity (PrestoBlue), breast cancer line; type: cell-based; conditions: MDA-MB-231, 72 h incubation
# Procedure: as §1, §2
# [17] = system: 3 breast cancer cell lines (MDA-MB-231, MCF-7 and T-47D); assay: Cytotoxicity, range over 3 breast cancer cell lines; type: cell-based; conditions: MDA-MB-231, MCF-7, T-47D
# Procedure: as §1, §2
# [18] = Stability in serum-free culture medium by HPLC-UV; type: physicochemical; conditions: for AUC (HPLC-UV), single measurements 1-5 / AUC (HPLC-UV), average: serum-free culture medium
# Procedure: Stability of the metal complexes in solution was measured in serum-free culture medium. The compounds were dissolved in DMSO right before the experiment. Solutions of Cu-LA and Ag-LA contained 1% final volume of DMSO, while Au-LA contained 30% DMSO. Samples were taken right after dilution, and after 1 h, 2 h, 4 h, 8 h, 16 h, 32 and 48 h, and measured by HPLC-UV.
# [19] = system: Bone marrow MSCs (BM-MSC); assay: Cytotoxicity, range over bone marrow MSCs; type: cell-based; conditions: BM-MSC and immortalized BM-MSC
# Procedure: as §1, §2
# [20] = system: T-47D; assay: H2DCFDA intracellular ROS production assay; type: cell-based; conditions: 50 μM, 4 h incubation, vs medium
# Procedure: (§4) To assess intracellular ROS production, we used a H2DCFDA cellular ROS assay kit (ab113851, Abcam) according to the manufacturer’s instructions. Briefly, 20,000 cells were seeded on 96-well plates. On the following day, cells were washed, and H2DCFDA solution, prepared by avoiding direct light, was added for 45 min. Next, cells were washed, and 50 μM samples of test compounds were aspirated on the cells in a complete and phenol red-free medium (FluoroBrite, Thermo Fisher). At each hour, fluorescence of 2′,7′-dichlorofluorescein (DCF) was measured at 484 nm/535 nm excitation/emission wavelengths. Values were normalized to 0 h measurements. Values indicate at least 3 independent measurements.
# [21] = system: Mes-Sa; assay: H2DCFDA intracellular ROS production assay; type: cell-based; conditions: 50 μM, 4 h incubation, vs medium
# Procedure: as §4
# [22] = system: MCF-7; assay: H2DCFDA intracellular ROS production assay; type: cell-based; conditions: MCF-7, 50 μM, 4 h incubation, vs medium
# Procedure: as §4
# [23] = system: HL-60 leukemia line; parameters: method as in PMID 34808062; conditions: cited from earlier work
structure (smiles),measurement,setting,value
"COc1cc([C@@H]2c3cc4c(cc3[C@@H](O[C@@H]3O[C@@H]5CO[C@@H](C)O[C@H]5[C@H](O)[C@H]3O)[C@H]3COC(=O)[C@H]23)OCO4)cc(OC)c1O [Etoposide, etoposide, reference compound]",IC50,[1]; Homo sapiens,1170 nM
same,IC50,"[2]; Homo sapiens, MES-SA/Dx5, 144 h",1700 nM
same,IC50,[3]; Homo sapiens,260 nM
"CC(=O)OC[C@H]1O[C@@H]([S-])[C@H](OC(C)=O)[C@@H](OC(C)=O)[C@@H]1OC(C)=O.CCP(CC)CC.[Au+] [Auranofin, auranofin, reference compound]",IC50,[4],6960 nM
same,IC50,[4]; listed as auranofin,7000 nM
same,IC50,[1],3220 nM
same,IC50,[5],2270 nM
same,IC50,[6],1710 nM
same,IC50,[7],1930 nM
same,IC50,[8],2880 nM
same,IC50,[2],1400 nM
same,IC50,[9],1200 to 7000 nM
same,IC50,[10],2610 nM
same,IC50,[11],1700 to 2300 nM
same,IC50,[12],2200 to 2900 nM
same,IC50,[13],2160 nM
same,IC50,[3],2210 nM
same,IC50,[14],2310 nM
same,IC50,[15],2830 nM
same,IC50,[16],1150 nM
same,IC50,[17],1200 to 2800 nM
"Cc1c(C)n(Cc2ccccc2)[c](=[Cu][Cl])n1Cc1ccccc1 [Cu-LA, Chloro-(1,3-dibenzyl-4,5-dimethyl-imidazol-2-ylidene)copper]",IC50,[4],104000 nM
same,IC50,[1],> 100000 nM
same,IC50,[5],67600 nM
same,IC50,[6],58500 nM
same,IC50,[7],72900 nM
same,IC50,[8],98300 nM
same,"AUC (HPLC-UV), single measurements 1-5",[18]; 0 h,1030 and 1011 and 1021 and 1023 and 1047
same,"AUC (HPLC-UV), average","[18]; 0 h, Cu-LA, Ag-LA 1% DMSO, Au-LA 30% DMSO",1026
same,"AUC (HPLC-UV), average",[18]; 1 h,1019
same,"AUC (HPLC-UV), single measurements 1-5",[18]; 1 h,1022 and 1016 and 1021 and 1017
same,"AUC (HPLC-UV), average",[18]; 2 h,1022
same,"AUC (HPLC-UV), single measurements 1-5",[18]; 2 h,1021 and 1020 and 1022 and 1023
same,"AUC (HPLC-UV), average",[18]; 4 h,1042
same,"AUC (HPLC-UV), single measurements 1-5",[18]; 4 h,1040 and 1041 and 1043 and 1044
same,"AUC (HPLC-UV), average",[18]; 8 h,1044
same,"AUC (HPLC-UV), single measurements 1-5",[18]; 8 h,1045 and 1042 and 1044 and 1046
same,"AUC (HPLC-UV), average",[18]; 16 h,1042
same,"AUC (HPLC-UV), single measurements 1-5",[18]; 16 h,1039 and 1042 and 1046
same,"AUC (HPLC-UV), average",[18]; 32 h,1038
same,"AUC (HPLC-UV), single measurements 1-5",[18]; 32 h,1030 and 1041 and 1038 and 1042 and 1039
same,"AUC (HPLC-UV), average",[18]; 48 h,1039
same,"AUC (HPLC-UV), single measurements 1-5",[18]; 48 h,1038 and 1039 and 1040
same,Stability in serum-free culture medium,"[18]; HPLC-UV, observed 48 h",stable
same,IC50,[2],76600 nM
same,IC50,[19],48000 to 98000 nM
same,IC50,[10],75400 nM
same,IC50,[13],23700 nM
same,IC50,[3],18500 nM
same,Higher intracellular ROS formation,[20],2–3 fold
same,Higher intracellular ROS formation,[21],2–3 fold
same,Higher intracellular ROS formation,[22],2–3 fold
same,IC50,[14],24800 nM
same,IC50,[15],41300 nM
same,IC50,[16],62500 nM
COc1cccc(C[n+]2c(C)c(C)n(Cc3ccccc3)c2C)c1 [lepidiline D],IC50,[23],1100 nM
